Legend:
Experiment in all cases: relative viability (nuclei count vs DMSO), 5 days (fraction); higher = more cells survive
Dinaciclib = compound: CCc1cnn2c(NCc3ccc[n+]([O-])c3)cc(N3CCCC[C@H]3CCO)nc12 [Dinaciclib]
Outline: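 After an overnight hold at 37 °C, lung cancer cell lines in 1536-well plates were pinned with five library-drug doses (not always all listed), each √10 from the next, on vehicle-anchored plates. The cells stayed 5 days without fresh medium, then a one-step fix, permeabilisation and Hoechst stain preceded 4× imaging and MetaXpress nuclear counts. A plate passed only with control CV under 25% and at least one doubling. Viability is the median, over plates, of treated-well nuclei relative to vehicle-well nuclei.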

Dinaciclib + Bortezomib = compound: CCc1cnn2c(NCc3ccc[n+]([O-])c3)cc(N3CCCC[C@H]3CCO)nc12 [Dinaciclib] + CC(C)C[C@H](NC(=O)[C@H](Cc1ccccc1)NC(=O)c1cnccn1)B(O)O [Bortezomib] (partner 0.002 µM)
Outline: (§1)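 Five library-drug doses in √10 steps were combined with a fixed anchor-drug dose, or a single drug was given alone, by pin tool to lung cancer cell lines in 1536-well plates the day after seeding. Nuclei were stained and counted after 5 days. Relative viability is the nuclei count in treated wells over that in vehicle wells, taken as the median of duplicate plates.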

Dinaciclib + Pictilisib = compound: CCc1cnn2c(NCc3ccc[n+]([O-])c3)cc(N3CCCC[C@H]3CCO)nc12 [Dinaciclib] + CS(=O)(=O)N1CCN(Cc2cc3nc(-c4cccc5[nH]ncc45)nc(N4CCOCC4)c3s2)CC1 [Pictilisib] (partner 1 µM)
Outline: as §1

Dinaciclib + Navitoclax = compound: CCc1cnn2c(NCc3ccc[n+]([O-])c3)cc(N3CCCC[C@H]3CCO)nc12 [Dinaciclib] + CC1(C)CCC(c2ccc(Cl)cc2)=C(CN2CCN(c3ccc(C(=O)NS(=O)(=O)c4ccc(N[C@H](CCN5CCOCC5)CSc5ccccc5)c(S(=O)(=O)C(F)(F)F)c4)cc3)CC2)C1 [Navitoclax] (partner 0.5 µM)
Outline: as §1

Dinaciclib + Foretinib = compound: CCc1cnn2c(NCc3ccc[n+]([O-])c3)cc(N3CCCC[C@H]3CCO)nc12 [Dinaciclib] + COc1cc2c(Oc3ccc(NC(=O)C4(C(=O)Nc5ccc(F)cc5)CC4)cc3F)ccnc2cc1OCCCN1CCOCC1 [Foretinib] (partner 0.25 µM)
Outline: as §1

Dinaciclib + Olaparib = compound: CCc1cnn2c(NCc3ccc[n+]([O-])c3)cc(N3CCCC[C@H]3CCO)nc12 [Dinaciclib] + O=C(c1cc(Cc2n[nH]c(=O)c3ccccc23)ccc1F)N1CCN(C(=O)C2CC2)CC1 [Olaparib] (partner 8 µM)
Outline: as §1

Dinaciclib + Lapatinib = compound: CCc1cnn2c(NCc3ccc[n+]([O-])c3)cc(N3CCCC[C@H]3CCO)nc12 [Dinaciclib] + CS(=O)(=O)CCNCc1ccc(-c2ccc3ncnc(Nc4ccc(OCc5cccc(F)c5)c(Cl)c4)c3c2)o1 [Lapatinib] (partner 2 µM)
Outline: as §1

Dinaciclib + Crizotinib = compound: CCc1cnn2c(NCc3ccc[n+]([O-])c3)cc(N3CCCC[C@H]3CCO)nc12 [Dinaciclib] + C[C@@H](Oc1cc(-c2cnn(C3CCNCC3)c2)cnc1N)c1c(Cl)ccc(F)c1Cl [Crizotinib] (partner 1 µM)
Outline: as §1

Dinaciclib + Linsitinib = compound: CCc1cnn2c(NCc3ccc[n+]([O-])c3)cc(N3CCCC[C@H]3CCO)nc12 [Dinaciclib] + C[C@]1(O)C[C@@H](c2nc(-c3ccc4ccc(-c5ccccc5)nc4c3)c3c(N)nccn32)C1 [Linsitinib] (partner 1 µM)
Outline: as §1

Dinaciclib + Alpelisib = compound: CCc1cnn2c(NCc3ccc[n+]([O-])c3)cc(N3CCCC[C@H]3CCO)nc12 [Dinaciclib] + Cc1nc(NC(=O)N2CCC[C@H]2C(N)=O)sc1-c1ccnc(C(C)(C)C(F)(F)F)c1 [Alpelisib] (partner 2 µM)
Outline: as §1

## EBC-1
Dinaciclib; 0.009487 µM
  relative viability: 0.875
Dinaciclib; 0.03 µM
  relative viability: 0.149
Dinaciclib; 0.09487 µM
  relative viability: 0.108
Dinaciclib; 0.3 µM
  relative viability: 0.141
Dinaciclib + Bortezomib; first compound 0.009487 µM
  relative viability: 0.452
Dinaciclib + Bortezomib; first compound 0.03 µM
  relative viability: 0.133
Dinaciclib + Bortezomib; first compound 0.09487 µM
  relative viability: 0.152
Dinaciclib + Bortezomib; first compound 0.3 µM
  relative viability: 0.146
Dinaciclib + Pictilisib; first compound 0.009487 µM
  relative viability: 0.283
Dinaciclib + Pictilisib; first compound 0.03 µM
  relative viability: 0.117
Dinaciclib + Pictilisib; first compound 0.09487 µM
  relative viability: 0.109
Dinaciclib + Pictilisib; first compound 0.3 µM
  relative viability: 0.142
Dinaciclib + Navitoclax; first compound 0.009487 µM
  relative viability: 0.307
Dinaciclib + Navitoclax; first compound 0.03 µM
  relative viability: 0.138
Dinaciclib + Navitoclax; first compound 0.09487 µM
  relative viability: 0.136
Dinaciclib + Navitoclax; first compound 0.3 µM
  relative viability: 0.163
Dinaciclib + Foretinib; first compound 0.009487 µM
  relative viability: 0.0927
Dinaciclib + Foretinib; first compound 0.03 µM
  relative viability: 0.0992
Dinaciclib + Foretinib; first compound 0.09487 µM
  relative viability: 0.106
Dinaciclib + Foretinib; first compound 0.3 µM
  relative viability: 0.106
Dinaciclib + Olaparib; first compound 0.009487 µM
  relative viability: 0.737
Dinaciclib + Olaparib; first compound 0.03 µM
  relative viability: 0.132
Dinaciclib + Olaparib; first compound 0.09487 µM
  relative viability: 0.126
Dinaciclib + Olaparib; first compound 0.3 µM
  relative viability: 0.106
Dinaciclib + Lapatinib; first compound 0.009487 µM
  relative viability: 0.21
Dinaciclib + Lapatinib; first compound 0.03 µM
  relative viability: 0.16
Dinaciclib + Lapatinib; first compound 0.09487 µM
  relative viability: 0.168
Dinaciclib + Lapatinib; first compound 0.3 µM
  relative viability: 0.157
Dinaciclib + Crizotinib; first compound 0.009487 µM
  relative viability: 0.198
Dinaciclib + Crizotinib; first compound 0.03 µM
  relative viability: 0.159
Dinaciclib + Crizotinib; first compound 0.09487 µM
  relative viability: 0.151
Dinaciclib + Crizotinib; first compound 0.3 µM
  relative viability: 0.136
Dinaciclib + Linsitinib; first compound 0.009487 µM
  relative viability: 0.977
Dinaciclib + Linsitinib; first compound 0.03 µM
  relative viability: 0.228
Dinaciclib + Linsitinib; first compound 0.09487 µM
  relative viability: 0.101
Dinaciclib + Linsitinib; first compound 0.3 µM
  relative viability: 0.127
Dinaciclib + Alpelisib; first compound 0.009487 µM
  relative viability: 0.501
Dinaciclib + Alpelisib; first compound 0.03 µM
  relative viability: 0.138
Dinaciclib + Alpelisib; first compound 0.09487 µM
  relative viability: 0.123
Dinaciclib + Alpelisib; first compound 0.3 µM
  relative viability: 0.141
